The subject of series [1] is heart (ischemia and reperfusion). Particulars: rabbits, cited from earlier work.
The subject of series [2] is distal colon (colitis). The note with it: rats, colitis by intraluminal trinitrobenzene sulfonic acid in 50% ethanol; cited from earlier work.
For series [3], the target named is T1, PARP-1 enzyme (Homo sapiens, UniProt P09874).
T1 construct: made in house
Put plainly: in vitro filtration assay for PARP-1 inhibitory activity. It counts as biochemical. Particulars: [32P]-NAD, histones, nicked DNA; dose-response 10^-5 M to 10^-8 M; read-out: in vitro filter assay PARP-1 pIC50 (converted). On the procedure:
In Vitro Filtration Assay for PARP-1 Inhibitory Activity
Compounds of the present invention were tested in an in vitro filtration assay assessing PARP-1 activity (triggered in the presence of nicked DNA) by means of its histone poly (ADP-ribosylation activity using [^32P]-NAD as ADP-ribosyl donor. The radioactive ribosylated histones were precipitated by trichloroacetic acid (TCA) in 96-well filterplates and the incorporated [^32P] measured using a scintillation counter
A mixture of histones (stock solution: 5 mg/ml in H2O), NAD^+ (stock solution: 100 mM in H2O), and [^32P]-NAD^+ in incubation buffer (50 mM Tris/HCl, pH 8; 0.2 mM DTT; 4 mM MgCl2) was made. A mixture of the PARP-1 enzyme (5-10 μg/ml) and nicked DNA was also made. The nicked DNA was prepared as described in the in vitro SPA for PARP-1 inhibitory activity. Seventy-five μl of the PARP-1 enzyme/DNA mixture together with 1 μl of compound in DMSO and 25 μl of histones-NAD^+/[^32P]-NAD^+ mixture was added per well of a 96-well filterplate (0.45 μm, supplier Millipore). The final concentrations in the incubation mixture were 2 μg/ml for the histones, 0.1 mM for the NAD^+, […] (0.5 μC) for the [^32P]-NAD^+ and 2 μg/ml for the nicked DNA. Plates were incubated for 15 min. at room temperature and the reaction was terminated by the addition of 10 μl ice cold 100% TCA followed by the addition of 10 μl ice-cold BSA solution (1% in H2O). The protein fraction was allowed to precipitate for 10 min. at 4° C. and plates were vacuum filtered. The plates were subsequently washed with, for each well, 1 ml of 10% ice cold TCA, 1 ml of 5% ice cold TCA and 1 ml of 5% TCA at room temperature. Finally 100 μl of scintillation solution (Microscint 40, Packard) was added to each well and the plates were transferred to a TopCountNXT™ (supplier: Packard) for scintillation counting and values were expressed as counts per minute (cpm). For each experiment, controls (containing PARP-1 enzyme and DMSO without compound), a blank incubation (containing DMSO but no PARP-1 enzyme or compound) and samples (containing PARP-1 enzyme and compound dissolved in DMSO) were run in parallel. All compounds tested were dissolved and eventually further diluted in DMSO. In first instance, compounds were tested at a concentration of 10^−5M. […] In each test, the blank value was subtracted from both the control and the sample values. The control sample represented maximal PARP-1 enzyme activity. For each sample, the amount of cpm was expressed as a percentage of the mean cpm value of the controls. When appropriate, IC50-values (concentration of the drug, needed to reduce the PARP-1 enzyme activity to 50% of the control) were computed using linear interpolation between the experimental points just above and below the 50% level. Herein the effects of test compounds are expressed as pIC50 (the negative log value of the IC50-value). As a reference compound, 4-amino-1,8-naphthalimide was included to validate the filtration assay.

Series [4] has as its target T2, TANK-2 enzyme (Homo sapiens, UniProt Q9H2K2).
T2 construct: His tag (inferred from capture on a Ni-coated plate); made in house
T2 sequence (Q9H2K2 1-1166): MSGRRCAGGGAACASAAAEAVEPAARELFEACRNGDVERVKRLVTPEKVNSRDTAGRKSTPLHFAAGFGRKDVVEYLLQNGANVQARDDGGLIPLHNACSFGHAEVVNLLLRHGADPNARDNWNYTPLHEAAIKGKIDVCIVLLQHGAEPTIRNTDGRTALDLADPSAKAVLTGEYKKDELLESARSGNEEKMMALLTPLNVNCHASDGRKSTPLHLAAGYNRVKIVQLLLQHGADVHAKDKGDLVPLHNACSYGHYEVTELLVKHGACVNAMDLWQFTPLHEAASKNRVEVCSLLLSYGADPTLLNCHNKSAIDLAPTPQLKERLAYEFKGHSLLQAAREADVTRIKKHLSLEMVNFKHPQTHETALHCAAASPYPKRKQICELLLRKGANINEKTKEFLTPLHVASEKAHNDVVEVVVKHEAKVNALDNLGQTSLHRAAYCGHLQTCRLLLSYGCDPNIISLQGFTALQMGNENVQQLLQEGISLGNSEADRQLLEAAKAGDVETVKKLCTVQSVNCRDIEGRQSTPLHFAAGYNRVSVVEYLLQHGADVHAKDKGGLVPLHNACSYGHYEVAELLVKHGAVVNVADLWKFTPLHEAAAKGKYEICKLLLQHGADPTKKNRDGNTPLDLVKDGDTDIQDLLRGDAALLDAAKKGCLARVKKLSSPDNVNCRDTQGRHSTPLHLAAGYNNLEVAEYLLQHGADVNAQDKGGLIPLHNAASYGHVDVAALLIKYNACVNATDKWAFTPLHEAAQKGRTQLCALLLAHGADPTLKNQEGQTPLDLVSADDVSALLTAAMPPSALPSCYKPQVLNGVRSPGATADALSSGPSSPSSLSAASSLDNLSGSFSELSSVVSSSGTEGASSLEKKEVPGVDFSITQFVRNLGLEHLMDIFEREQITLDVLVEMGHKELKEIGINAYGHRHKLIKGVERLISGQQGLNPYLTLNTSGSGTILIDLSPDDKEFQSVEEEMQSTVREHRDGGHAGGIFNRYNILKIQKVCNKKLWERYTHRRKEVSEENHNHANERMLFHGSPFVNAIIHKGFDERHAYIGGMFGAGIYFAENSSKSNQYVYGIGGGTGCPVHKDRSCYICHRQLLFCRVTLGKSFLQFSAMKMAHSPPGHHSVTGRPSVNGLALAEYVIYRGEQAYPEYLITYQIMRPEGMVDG
Put plainly: in vitro Scintillation Proximity Assay (SPA) for TANK-2 inhibitory activity. It counts as biochemical. As to the method: In Vitro Scintillation Proximity Assay (SPA) for Tank-2 Inhibitory Activity
Compounds of the present invention were tested in an in vitro assay based on SPA technology with Ni Flash plates (96 or 384 well).
In principle, the assay relies upon SPA technology for the detection of auto-poly(ADP-ribosylation of TANK-2 protein using [^3H]-nicotinamide adenine dinucleotide ([^3H]-NAD^+) as ADP-ribosyl donor.
A stock solution of [^3H]-NAD^+/NAD was made by adding 64.6 μl of [^3H]-NAD^+ (0.1 mCi/ml, supplier: Perkin Elmer) and 46.7 μl NAD-stock (10.7 mM, stored at −20° C., supplier Roche) to 1888.7 μl assay buffer (60 mM Tris/HCl, pH 7.4; 0.9 mM DTT; 6 mM MgCl2). The TANK-2 enzyme was produced as described in EP1238063.60 μl of assay buffer, together with 1 μl of compound in DMSO, 20 μl of [^3H]-NAD^+/NAD and 20 μl of TANK-2 enzyme (final concentration 6 μg/ml) was added per well into a 96-well Ni-coated flash plate (Perkin Elmer). After incubation of the mixture for 120 min. at room temperature, the reaction was terminated by adding 60 μl of stopsolution (42.6 mg NAD in 6 ml H2O). The plates were covered with a plate sealer and placed in a TopCountNXT™ (Packard) for scintillation counting. Values were expressed as counts per minute (cpm). For each experiment, controls (containing TANK-2 enzyme and DMSO without compound), a blank incubation (containing DMSO but no TANK-2 enzyme or compound) and samples (containing TANK-2 enzyme and compound dissolved in DMSO) were run in parallel. All compounds tested were dissolved and eventually further diluted in DMSO. […] In each test, the blank value was subtracted from both the control and the sample values. The control sample represented maximal TANK-2 enzyme activity. For each sample, the amount of cpm was expressed as a percentage of the mean cpm value of the controls. When appropriate, IC50-values (concentration of the drug, needed to reduce the TANK-2 enzyme activity to 50% of the control) were computed using linear interpolation between the experimental points just above and below the 50% level. Herein the effects of test compounds are expressed as pIC50 (the negative log value of the IC50-value). As reference compounds, 3-aminobenzamide and 4-amino-1,8-naphthalimide were included to validate the SPA assay. Herein the assay was described using 96-well plates. In the assay using 384-well plates the same final concentrations were used and volumes were adapted.

Each structure is given as a SMILES string. Where only a bound is given, the exact number is not on record here.

T1 sequence (P09874 whole entry): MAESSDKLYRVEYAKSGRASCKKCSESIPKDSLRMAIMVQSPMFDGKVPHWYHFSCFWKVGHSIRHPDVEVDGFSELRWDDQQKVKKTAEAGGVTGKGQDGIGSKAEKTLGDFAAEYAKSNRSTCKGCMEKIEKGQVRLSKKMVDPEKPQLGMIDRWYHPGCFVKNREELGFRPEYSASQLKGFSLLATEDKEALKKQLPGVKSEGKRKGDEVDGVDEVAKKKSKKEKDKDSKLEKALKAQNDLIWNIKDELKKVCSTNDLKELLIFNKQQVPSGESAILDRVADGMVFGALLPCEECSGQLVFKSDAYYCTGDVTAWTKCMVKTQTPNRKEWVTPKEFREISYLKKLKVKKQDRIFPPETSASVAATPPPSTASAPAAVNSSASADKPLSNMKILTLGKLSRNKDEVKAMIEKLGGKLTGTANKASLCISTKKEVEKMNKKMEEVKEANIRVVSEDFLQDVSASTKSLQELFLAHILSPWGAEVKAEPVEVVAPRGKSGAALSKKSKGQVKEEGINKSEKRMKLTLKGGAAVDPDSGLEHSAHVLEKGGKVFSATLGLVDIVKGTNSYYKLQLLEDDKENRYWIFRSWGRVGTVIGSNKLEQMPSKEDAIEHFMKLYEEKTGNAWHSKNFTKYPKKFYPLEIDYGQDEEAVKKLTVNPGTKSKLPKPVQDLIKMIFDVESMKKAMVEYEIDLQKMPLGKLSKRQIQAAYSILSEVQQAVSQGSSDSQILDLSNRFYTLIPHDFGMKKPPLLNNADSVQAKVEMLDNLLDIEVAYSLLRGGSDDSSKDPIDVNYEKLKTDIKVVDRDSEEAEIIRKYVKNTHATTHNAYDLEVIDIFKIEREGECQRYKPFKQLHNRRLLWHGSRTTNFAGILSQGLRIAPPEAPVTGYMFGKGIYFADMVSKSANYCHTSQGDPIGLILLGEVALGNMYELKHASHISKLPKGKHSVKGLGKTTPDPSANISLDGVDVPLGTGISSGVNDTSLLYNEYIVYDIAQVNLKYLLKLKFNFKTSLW

In the case of `O=c1[nH]nc(C2CCNCC2)c2ccccc12` (hydrate or solvate) [Compound 4], the melting point came to 264.9 °C.

Regarding `Oc1cccc2c(O)nccc12` [1,5-dihydroxyisoquinoline], in series [1] (single injection 1 mg/kg), the reduced infarct size was 38-48%.

As for `NC(=O)c1cccc(N)c1` [3-amino-benzamide], the “reductions in infarct size in the heart” value in series [1] (single injection 10 mg/kg, one minute before occlusion or one minute before reperfusion) is 32-42%. Further, the “effect on inflammatory response and distal colon” value in series [2] was “reduced the inflammatory response”.

The compound `O=c1[nH]nc(C2CCN(CC(O)COc3ccc(F)cc3)CC2)c2ccccc12` (centres unmarked) [Compound 2] yielded a melting point of 226.9 °C. The IC50 in series [3] is 17.2 nM.

Regarding `CC(=O)N1CCC(c2n[nH]c(=O)c3ccccc23)CC1` [Compound 5], the melting point was 222 °C. In series [3], the IC50 was 270 nM. For the same compound, the IC50 in series [4] was greater than 10 µM.

Take `NC(=O)N1CCC(c2n[nH]c(=O)c3ccccc23)CC1` [Compound 6]: the melting point was greater than 300 °C. Further, in series [3], the IC50 was 195 nM. Further, in series [4], the IC50 is greater than 10 µM.

`N#CCN1CCC(c2n[nH]c(=O)c3ccccc23)CC1` [Compound 7]: the melting point was 259 °C. The IC50 in series [3] is 88.9 nM. In addition, the IC50 in series [4] is 9.62 µM.

`NCCN1CCC(c2n[nH]c(=O)c3ccccc23)CC1` [Compound 8] came in with a melting point of 202 °C. Also, the IC50 in series [3] is 29 nM. Besides, the IC50 in series [4] is greater than 10 µM.

With `NCC1CCN(c2n[nH]c(=O)c3ccccc23)CC1` [Compound 9], the melting point was determined as 182 °C. In series [3], the IC50 was 15.5 nM. This compound registered an IC50 in series [4] greater than 10 µM.

Compound `O=c1[nH]nc(N[C@H]2CCN[C@@H](Cc3ccccc3)C2)c2ccccc12` [Compound 10] showed a melting point of 238 °C. The IC50 in series [3] is 24.3 nM. The compound further returned an IC50 in series [4] greater than 10 µM.

As for `CCOC(=O)N1CC[C@H](Nc2n[nH]c(=O)c3ccccc23)C[C@@H]1Cc1ccccc1` [Compound 16], the melting point was 140 °C. Besides, the IC50 in series [3] is 378 nM. In series [4], this compound showed an IC50 greater than 10 µM.

Regarding `N#CC1CCN(c2n[nH]c(=O)c3ccccc23)CC1` [Compound 18], the melting point was 253 °C.

`CCOC(=O)N1CC[C@H](Nc2nnc(Cl)c3ccccc23)C[C@@H]1Cc1ccccc1` [Compound 19] had a melting point of 161 °C. Moreover, the IC50 in series [4] is greater than 10 µM.

In turn, `CCOC(=O)N1CCC(Nc2nnc(Cl)c3ccc([N+](=O)[O-])cc23)CC1` [Compound 20] had a melting point of 199 °C. The IC50 in series [4] was greater than 10 µM.

These data come from patent US7803795B2, “Phthalazine derivatives as parp inhibitors” (Janssen Pharmaceutica N.V., priority 2004, dated 2010).
